Results on 5 compounds are retold here after patent US6797711B2, “Benzofuran derivatives and pharmaceutical compositions containing the same” (Pola Chemical Industries, Inc., priority 2000, dated 2004).

Broadly, the melting point is the temperature of the solid-liquid transition.

`O=C(/C=C/c1ccccc1)N1CCN(CC(O)c2cc3ccccc3o2)CC1` (centres unmarked) [Compound 1, 1-(2-(benzofuran-2-yl)-2-hydroxy)ethyl-4-cinnamoylpiperazine] showed a melting point of 126.5 to 128 °C. In turn, `O=C(CC(c1ccccc1)c1ccccc1)N1CCN(CC(O)c2cc3ccccc3o2)CC1` (centres unmarked) [Compound 3, 1-(2-(benzofuran-2-yl)-2-hydroxy)ethyl-4-(3,3-diphenylpropionyl)piperazine] gave a melting point of 125.5 to 127.5 °C. With `O=C(CC(c1ccccc1)c1ccccc1)N1CCN(C(=O)c2cc3ccccc3o2)CC1` [Compound 4, 1-(benzofuran-2-yl)carbonyl-4-(3,3-diphenylpropionyl)piperazine] the figure was 130.5 to 132 °C; with `O=C(CC(c1ccccc1)c1ccccc1)N1CCN(Cc2cc3ccccc3o2)CC1` [Compound 6, 1-(benzofuran-2-yl)methyl-4-(3,3-diphenylpropionyl)piperazine], 120.5 to 122 °C. Compound `O=C(CC(c1ccccc1)c1ccccc1)N1CCN(CCc2cc3ccccc3o2)CC1` [Compound 7, 1-(2-(benzofuran-2-yl)ethyl)-4-(3,3-diphenylpropionyl)piperazine] gave a melting point of 123.3 to 124.1 °C.
